Experimental data published in patent US7777047B2, “Indole compound” (Takeda Pharmaceutical Company Limited, priority 2006, dated 2010).

| melting point | SMILES |
| --- | --- |
| 193 to 194 °C | CN(c1cccc2cc(C3=NCC(CC(N)=O)S3)[nH]c12)S(=O)(=O)c1cccs1 (stereo not shown) [Example 287, 2-(2-{7-[methyl(2-thienylsulfonyl)amino]-1H-indol-2-yl}-4,5-dihydro-1,3-thiazol-5-yl)acetamide] |
| 120 to 121 °C | Cc1ccc(N(C)S(=O)(=O)c2cccs2)c2[nH]c(C3=NCC(CC(N)=O)S3)cc12 (stereo not shown) [Example 293, 2-(2-{4-methyl-7-[methyl(2-thienylsulfonyl)amino]-1H-indol-2-yl}-4,5-dihydro-1,3-thiazol-5-yl)acetamide] |
| 232 to 234 °C | CN(c1cccc2cc(C3=NCC(CC(=O)O)S3)[nH]c12)S(=O)(=O)c1cccs1 (stereo not shown) [Example 284, (2-{7-[methyl(2-thienylsulfonyl)amino]-1H-indol-2-yl}-4,5-dihydro-1,3-thiazol-5-yl)acetic acid] |
| 157 to 158 °C | C=CC(=O)CC1CN=C(c2cc3cccc(N(C)S(=O)(=O)c4cccs4)c3[nH]2)S1 (stereo not shown) [Example 301, N-methyl-N-{2-[5-(2-oxobut-3-en-1-yl)-4,5-dihydro-1,3-thiazol-2-yl]-1H-indol-7-yl}thiophene-2-sulfonamide] |
| 153 to 154 °C | CON(C)C(=O)CC1CN=C(c2cc3cccc(N(C)S(=O)(=O)c4cccs4)c3[nH]2)S1 (stereo not shown) [Example 299, N-methoxy-N-methyl-2-(2-{7-[methyl(2-thienylsulfonyl)amino]-1H-indol-2-yl}-4,5-dihydro-1,3-thiazol-5-yl)acetamide] |
| 151 to 153 °C | CN1CCN(C(=O)CC2CN=C(c3cc4cccc(N(C)S(=O)(=O)c5cccs5)c4[nH]3)S2)CC1 (stereo not shown) [Example 286, N-methyl-N-(2-{5-[2-(4-methylpiperazin-1-yl)-2-oxoethyl]-4,5-dihydro-1,3-thiazol-2-yl}-1H-indol-7-yl)thiophene-2-sulfonamide] |
| 269 to 270 °C | Cc1ccc(N(C)S(=O)(=O)c2cccs2)c2[nH]c(C3=NCC(CC(=O)O)S3)cc12 (stereo not shown) [Example 292, (2-{4-methyl-7-[methyl(2-thienylsulfonyl)amino]-1H-indol-2-yl}-4,5-dihydro-1,3-thiazol-5-yl)acetic acid] |
| 101 to 102 °C | CCOC(=O)CC1CN=C(c2cc3cccc(N(C)S(=O)(=O)c4cccs4)c3[nH]2)S1 (stereo not shown) [Example 283, ethyl (2-{7-[methyl(2-thienylsulfonyl)amino]-1H-indol-2-yl}-4,5-dihydro-1,3-thiazol-5-yl)acetate] |
| 153 to 154 °C | CN(C)C(=O)CC1CN=C(c2cc3cccc(N(C)S(=O)(=O)c4cccs4)c3[nH]2)S1 (stereo not shown) [Example 294, N,N-dimethyl-2-(2-{7-[methyl(2-thienylsulfonyl)amino]-1H-indol-2-yl}-4,5-dihydro-1,3-thiazol-5-yl)acetamide] |

More lines, now with the values behind:

| SMILES | melting point |
| --- | --- |
| CN(c1cccc2cc(C3=NCC(CC(=O)O)S3)[nH]c12)S(=O)(=O)c1ccccn1 (stereo not shown) [Example 333, (2-{7-[methyl(pyridin-2-ylsulfonyl)amino]-1H-indol-2-yl}-4,5-dihydro-1,3-thiazol-5-yl)acetic acid] | 231 to 233 °C |
| COc1ccccc1S(=O)(=O)N(C)c1cccc2cc(C3=NCC(CC(=O)O)S3)[nH]c12 (stereo not shown) [Example 307, (2-{7-[[(2-methoxyphenyl)sulfonyl](methyl)amino]-1H-indol-2-yl}-4,5-dihydro-1,3-thiazol-5-yl)acetic acid] | 197 to 198 °C |
| CN(c1cc(OCCCS(C)(=O)=O)cc2cc(C3=NCC(CN4CCOCC4)S3)[nH]c12)S(=O)(=O)c1ccccn1 (stereo not shown) [Example 321, N-methyl-N-{5-[3-(methylsulfonyl)propoxy]-2-[5-(morpholinomethyl)-4,5-dihydro-1,3-thiazol-2-yl]-1H-indol-7-yl}pyridine-2-sulfonamide] | 168 to 169 °C |
| CN(c1cccc2cc(C3=NCC(CC(N)=O)S3)[nH]c12)S(=O)(=O)c1ccccn1 (stereo not shown) [Example 334, 2-(2-{7-[methyl(pyridin-2-ylsulfonyl)amino]-1H-indol-2-yl}-4,5-dihydro-1,3-thiazol-5-yl)acetamide] | 206 to 207 °C |
| CN(c1cccc2cc(C3=NCC(CC(N)=O)S3)[nH]c12)S(=O)(=O)c1ccccn1 (stereo not shown) [Example 338, 2-(2-{7-[methyl(pyridin-2-ylsulfonyl)amino]-1H-indol-2-yl}-4,5-dihydro-1,3-thiazol-5-yl)acetamide] | 148 to 149 °C |
| CN(c1cccc2cc(C3=NCC(CN4CCSCC4)S3)[nH]c12)S(=O)(=O)c1ccccn1 (stereo not shown) [Example 303, N-methyl-N-{2-[5-(thiomorpholinomethyl)-4,5-dihydro-1,3-thiazol-2-yl]-1H-indol-7-yl}pyridine-2-sulfonamide] | 142 to 144 °C |
| CN(c1cccc2cc(C3=NCC(CCN4C(=O)CCC4=O)S3)[nH]c12)S(=O)(=O)c1cccs1 (stereo not shown) [Example 288, N-(2-{5-[2-(2,5-dioxopyrrolidin-1-yl)ethyl]-4,5-dihydro-1,3-thiazol-2-yl}-1H-indol-7-yl)-N-methylthiophene-2-sulfonamide] | 189 to 191 °C |
| NC(=O)CC1CN=C(c2cc3cccc(NS(=O)(=O)c4cccs4)c3[nH]2)S1 (stereo not shown) [Example 297, 2-(2-{7-[(2-thienylsulfonyl)amino]-1H-indol-2-yl}-4,5-dihydro-1,3-thiazol-5-yl)acetamide] | 130 to 131 °C |
| COc1ccccc1S(=O)(=O)N(C)c1cccc2cc(C3=NCC(CC(N)=O)S3)[nH]c12 (stereo not shown) [Example 308, 2-(2-{7-[[(2-methoxyphenyl)sulfonyl](methyl)amino]-1H-indol-2-yl}-4,5-dihydro-1,3-thiazol-5-yl)acetamide] | 227 to 228 °C |
| CN(c1cc(OCCCS(C)(=O)=O)cc2cc(C3=NCC(CN4CCN(S(C)(=O)=O)CC4)S3)[nH]c12)S(=O)(=O)c1ccccn1 (stereo not shown) [Example 325, N-methyl-N-{2-(5-{[4-(methylsulfonyl)piperazin-1-yl]methyl}-4,5-dihydro-1,3-thiazol-2-yl)-5-[3-(methylsulfonyl)propoxy]-1H-indol-7-yl}pyridine-2-sulfonamide] | 151 to 153 °C |
| CC(=O)N1CCN(CC2CN=C(c3cc4cc(OCCCS(C)(=O)=O)cc(N(C)S(=O)(=O)c5ccccn5)c4[nH]3)S2)CC1 (stereo not shown) [Example 324, N-{2-{5-[(4-acetylpiperazin-1-yl)methyl]-4,5-dihydro-1,3-thiazol-2-yl}-5-[3-(methylsulfonyl)propoxy]-1H-indol-7-yl}-N-methylpyridine-2-sulfonamide] | 165 to 167 °C |
| CN(c1cccc2cc(C3=NCC(CN4CC[S+]([O-])CC4)S3)[nH]c12)S(=O)(=O)c1nccn1C (stereo not shown) [Example 320, N,1-dimethyl-N-(2-{5-[(1-oxidothiomorpholino)methyl]-4,5-dihydro-1,3-thiazol-2-yl}-1H-indol-7-yl)-1H-imidazole-2-sulfonamide] | 161 to 162 °C |
| O=S(=O)(c1cccs1)N(c1cccc2cc(C3=NCC(CN4CCOCC4)S3)[nH]c12)C(F)F (stereo not shown) [Example 346, N-(difluoromethyl)-N-{2-[5-(morpholinomethyl)-4,5-dihydro-1,3-thiazol-2-yl]-1H-indol-7-yl}thiophene-2-sulfonamide] | 185 to 186 °C |
| CN(c1cccc2cc(C3=NCC(CC(=O)N4CCC[C@H]4C(=O)O)S3)[nH]c12)S(=O)(=O)c1ccccc1C(F)(F)F (stereo partly drawn) [Example 316, 1-({2-[7-(methyl{[2-(trifluoromethyl)phenyl]sulfonyl}amino)-1H-indol-2-yl]-4,5-dihydro-1,3-thiazol-5-yl}acetyl)-L-proline] | 132 to 135 °C |
| CN(c1cccc2cc(C3=NCC(CN4CCS(=O)(=O)CC4)S3)[nH]c12)S(=O)(=O)c1ccccn1 (stereo not shown) [Example 318, N-(2-{5-[(1,1-dioxidothiomorpholino)methyl]-4,5-dihydro-1,3-thiazol-2-yl}-1H-indol-7-yl)-N-methylpyridine-2-sulfonamide] | 188 to 189 °C |
| O=S(=O)(Nc1cccc2cc(C3=NCC(CCO)S3)[nH]c12)c1cccs1 (stereo not shown) [Example 295, N-{2-[5-(2-hydroxyethyl)-4,5-dihydro-1,3-thiazol-2-yl]-1H-indol-7-yl}thiophene-2-sulfonamide] | 156 to 158 °C |
| O=C(O)CC1CN=C(c2cc3cccc(NS(=O)(=O)c4cccs4)c3[nH]2)S1 (stereo not shown) [Example 296, (2-{7-[(2-thienylsulfonyl)amino]-1H-indol-2-yl}-4,5-dihydro-1,3-thiazol-5-yl)acetic acid] | > 240 °C (dec.) |
| CN(c1cccc2cc(C3=NCC(CC(=O)O)S3)[nH]c12)S(=O)(=O)c1ccccc1C(F)(F)F (stereo not shown) [Example 314, {2-[7-(methyl{[2-(trifluoromethyl)phenyl]sulfonyl}amino)-1H-indol-2-yl]-4,5-dihydro-1,3-thiazol-5-yl}acetic acid] | 170 to 172 °C |
| COc1ccccc1S(=O)(=O)N(C)c1cccc2cc(C3=NCC(CCO)S3)[nH]c12 (stereo not shown) [Example 306, N-{2-[5-(2-hydroxyethyl)-4,5-dihydro-1,3-thiazol-2-yl]-1H-indol-7-yl}-2-methoxy-N-methylbenzenesulfonamide] | 154 to 155 °C |
